Measured values: publication PMC9571433, “Design, Synthesis, Anti-Varicella-Zoster and Antimicrobial Activity of (Isoxazolidin-3-yl)Phosphonate Conjugates of N1-Functionalised Quinazoline-2,4-Diones” (Molecules, 2022)
pEC50: −log10 of the molar value. Values after ≈ are worked out from the molar mass of the structure shown. Where two headings read alike, the source gives them in different places.

Experiments:
[1] = test system: E. faecalis ATCC 29212; test: Broth microdilution MIC/MBC; settings: Enterococcus faecalis, ATCC29212, 24 h
[2] = test system: S. aureus ATCC 2593; test: Broth microdilution MIC/MBC; settings: Staphylococcus aureus, ATCC2593, 24 h, read-out: MIC = MBC
[3] = test system: B. cereus PCM 1948; test: Broth microdilution MIC/MBC; settings: Bacillus cereus
[4] = test system: TK– VZV 07-1 strain; test: microbe, parasite or virus in culture; type: cell-based, varicella-zoster virus; settings: Human alphaherpesvirus 3, HEL, read-out: Antiviral Activity EC50 TK– VZV Strain (07-1)
[5] = test system: A. brasiliensis ATCC 16404; test: Broth microdilution MIC/MBC (antifungal); settings: Aspergillus brasiliensis, ATCC16404, 72 h, read-out: MIC = MBC
[6] = test system: human embryonic lung (HEL) cells; settings: minimum cytotoxic concentration causing microscopically detectable alteration of cell morphology
[7] = test system: P. aeruginosa ATCC 27853; test: Broth microdilution MIC/MBC; settings: Pseudomonas aeruginosa, ATCC27853, 24 h, read-out: MIC = MBC
[8] = test system: TK+ VZV OKA strain; test: microbe, parasite or virus in culture; type: cell-based, varicella-zoster virus; settings: Human alphaherpesvirus 3, HEL, read-out: Antiviral Activity EC50 TK+ VZV Strain (OKA)
[9] = test system: E. coli ATCC 25922; test: Broth microdilution MIC/MBC; settings: Escherichia coli
[10] = test system: C. albicans ATCC 10241; test: Broth microdilution MIC/MBC (antifungal); settings: Candida albicans, ATCC10241, read-out: MIC = MBC
[11] = PCM1948, 24 h, read-out: MIC = MBC
[12] = ATCC25922, 24 h, read-out: MIC = MBC

| MIC ([3]; PCM1948) [µg/mL] | SMILES | MBC [1] [µg/mL] | MIC [1] [µg/mL] | MIC [2] [µg/mL] | MIC [3, 11] [µg/mL] | pEC50 [4] | MIC [5] [µg/mL] | Cytotoxicity Cell Morphology MCC [6] [μM] | MIC [7] [µg/mL] | pEC50 [8] | MIC [9, 12] [µg/mL] | MIC [10] [µg/mL] | MIC ([9]; ATCC25922) [µg/mL] |
| --- | --- | --- | --- | --- | --- | --- | --- | --- | --- | --- | --- | --- | --- |
| – | CCOP(=O)(OCC)[C@H]1C[C@H](Cn2c(=O)c3ccccc3n(Cc3ccccc3)c2=O)ON1Cc1ccccc1 (relative stereo) [Diethyl trans-(2-benzyl-5-((1-benzyl-2,4-dioxo-1,4-dihydroquinazolin-3(2H)-yl)methyl)isoxazolidin-3-yl)phosphonate] | > 5000 | > 5000 | 5000 (≈ 8.87 mM) | 1250 (≈ 2.22 mM) | 4.47 | 5000 (≈ 8.87 mM) | 100 | 2500 (≈ 4.44 mM) | 4.84 | 2500 (≈ 4.44 mM) | 5000 (≈ 8.87 mM) | – |
| – | CCOP(=O)(OCC)[C@H]1C[C@H](Cn2c(=O)c3ccccc3n(Cc3ccccc3F)c2=O)ON1C (relative stereo) [Diethyl trans-(5-((1-(2-fluorobenzyl)-2,4-dioxo-1,4-dihydroquinazolin-3(2H)-yl)methyl)-2-methylisoxazolidin-3-yl)phosphonate] | > 5000 | > 5000 | 5000 (≈ 9.89 mM) | 1250 (≈ 2.47 mM) | 4.23 | 5000 (≈ 9.89 mM) | >100 | 2500 (≈ 4.95 mM) | 4.50 | 2500 (≈ 4.95 mM) | 2500 (≈ 4.95 mM) | – |
| – | CCOP(=O)(OCC)[C@H]1C[C@H](Cn2c(=O)c3ccccc3n(Cc3ccc(F)cc3)c2=O)ON1C (relative stereo) [Diethyl trans-(5-((1-(4-fluorobenzyl)-2,4-dioxo-1,4-dihydroquinazolin-3(2H)-yl)methyl)-2-methylisoxazolidin-3-yl)phosphonate] | > 5000 | > 5000 | 5000 (≈ 9.89 mM) | 1250 (≈ 2.47 mM) | 4.42 | 5000 (≈ 9.89 mM) | >100 | 2500 (≈ 4.95 mM) | 4.23 | 2500 (≈ 4.95 mM) | 2500 (≈ 4.95 mM) | – |
| – | C=CCn1c(=O)c2ccccc2n(Cc2ccccc2)c1=O [24a, 3-Allyl-1-benzylquinazoline-2,4-dione] | > 5000 | > 5000 | 5000 (≈ 17.1 mM) | 5000 (≈ 17.1 mM) | 4.00 | 5000 (≈ 17.1 mM) | >100 | 2500 (≈ 8.55 mM) | 4.00 | 2500 (≈ 8.55 mM) | 5000 (≈ 17.1 mM) | – |
| – | C=CCn1c(=O)c2ccccc2n(Cc2ccccc2F)c1=O [24b, 3-Allyl-1-(2-fluorobenzyl)quinazoline-2,4-dione] | > 5000 | > 5000 | 5000 (≈ 16.1 mM) | 2500 (≈ 8.06 mM) | 4.19 | 5000 (≈ 16.1 mM) | >100 | 2500 (≈ 8.06 mM) | < 4.00 | 2500 (≈ 8.06 mM) | 5000 (≈ 16.1 mM) | – |
| – | C=CCn1c(=O)c2ccccc2n(Cc2cccc(F)c2)c1=O [24c, 3-Allyl-1-(3-fluorobenzyl)quinazoline-2,4-dione] | > 5000 | > 5000 | 5000 (≈ 16.1 mM) | 5000 (≈ 16.1 mM) | < 4.00 | 5000 (≈ 16.1 mM) | >100 | 2500 (≈ 8.06 mM) | < 4.00 | 1250 (≈ 4.03 mM) | 2500 (≈ 8.06 mM) | 1250 (≈ 4.03 mM) |
| – | C=CCn1c(=O)c2ccccc2n(Cc2ccc(F)cc2)c1=O [24d, 3-Allyl-1-(4-fluorobenzyl)quinazoline-2,4-dione] | > 5000 | > 5000 | 5000 (≈ 16.1 mM) | 5000 (≈ 16.1 mM) | < 4.70 | 5000 (≈ 16.1 mM) | 100 | 2500 (≈ 8.06 mM) | 4.26 | 2500 (≈ 8.06 mM) | 2500 (≈ 8.06 mM) | – |
| 20 (≈ 0.0342 mM) | NCC[C@H](O)C(=O)N[C@@H]1C[C@H](N)[C@@H](O[C@H]2O[C@H](CN)[C@@H](O)[C@H](O)[C@H]2O)[C@H](O)[C@H]1O[C@H]1O[C@H](CO)[C@@H](O)[C@H](N)[C@H]1O [Amikacin, reference compound] | – | 0.625 (≈ 0.00107 mM) | 1 (≈ 0.00171 mM) | 20 (≈ 0.0342 mM) | – | – | – | 20 (≈ 0.0342 mM) | – | 0.625 (≈ 0.00107 mM) | – | – |
